≈ marks a conversion by molar mass, not a printed value. Read-outs that look alike come from different tables or passages of the source.
Key:
MRSA clinical isolates [1] = experiment: MIC by broth microdilution against multidrug-resistant MRSA clinical isolates; type: cell-based, Staphylococcus aureus; conditions: for MIC Range Against 8 MRSA Strains: 8 multidrug-resistant MRSA clinical isolates, tested 0.125-1 mg/L; for MIC: Staphylococcus aureus, MRSA, read-out: MIC against 8 MRSA strains
Protocol: (§1) Clinical MRSA isolates with multidrug resistance were obtained from the collection of the Research Institute of Antimicrobial Chemotherapy, Smolensk State Medical Academy.
The MICs were determined using a broth microdilution method according to [42]. Briefly, serial dilutions of the tested compounds in 50 µL of Mueller Hinton broth (BD) were prepared in 96-well microplates. The antibiotics vancomycin and linezolid (Sigma-Aldrich, St. Louis, MO, USA) were used as a positive control. Bacterial suspensions of the tested MRSA strains were prepared in the Mueller Hinton broth (BD) with a concentration 1 × 10^6 CFU/mL, and then 50 µL aliquots were added to the prepared microplates. The final concentrations of the antibiotics in the wells were 1, 0.5, 0.25, and 0.125 mg/L, for the tested compounds, and 2 mg/L for vancomycin and linezolid. Negative control (lack of bacterial cells) and growth control (lack of compound) wells were included in all plates. The microplates were incubated at 37 °C for 18 h. The growth was assessed visually after incubation, and the MIC was assumed as the lowest compound concentration at which a noticeable growth of the microorganisms was inhibited (no visible growth). All experiments were conducted in triplicate.

[2] = Solubility in water by HPLC; type: physicochemical; conditions: water, kinetic from dmso stock
Protocol: The solubility of the compounds in water was assessed using HPLC analysis. Two 1.0 mg portions of the test compounds were dissolved in 10 μL of dimethyl sulfoxide; 1.0 mL of acetonitrile was added to one sample (standard), and 1.0 mL of water was added to the second sample (tested sample). Both vials were mixed in a shaker for 5 min, then centrifuged at 10,000 rpm for 5 min. The supernatants were collected and analyzed using Agilent 1290 Infinity (Agilent Technologies, Santa Clara, CA, USA) with a YMC-Triart C18 50 × 2.0 mm, 1.9 μm column. The concentration of the test compound in water was determined by comparing the peak areas of the standard (concentration 1.0 mg/mL) and the tested sample.

MRSA clinical isolates [3] = experiment: Antibiotic susceptibility profile of MRSA clinical isolates (EUCAST breakpoints); type: cell-based, Staphylococcus aureus
Excerpt: as §1

[4] = read-out: Solubility in water, mass concentration
[5] = read-out: Solubility in water, molar concentration

## CCOC(=O)c1[nH]c2cc(F)ccc2c1/N=N/N(C)Cc1ccccc1 [BX-SI037, Ethyl (E)-3-(3-benzyl-3-methyltriaz-1-en-1-yl)-6-fluoro-1H-indole-2-carboxylate]
MRSA clinical isolates [1]
  MIC Range Against 8 MRSA Strains: 1 mg/L (≈ 2.82 µM)
[2]; [4]
  solubility at 5 min: 18.4 µg/mL
[2]; [5]
  solubility at 5 min: 50 µM

## CCOC(=O)c1c(/N=N/N(CC)CC)c2cccnc2n1C [BX-SI019, Ethyl (E)-3-(3,3-diethyltriaz-1-en-1-yl)-1-methyl-1H-pyrrolo[2,3-b]pyridine-2-carboxylate]
MRSA clinical isolates [1]
  MIC Range Against 8 MRSA Strains: >1 mg/L
[2]; [4]
  solubility at 5 min: 88.2 µg/mL
[2]; [5]
  solubility at 5 min: 290 µM

## CCOC(=O)c1c(/N=N/N(C)Cc2ccccc2)c2cccnc2n1C [BX-SI020, Ethyl (E)-3-(3-benzyl-3-methyltriaz-1-en-1-yl)-1-methyl-1H-pyrrolo[2,3-b]pyridine-2-carboxylate]
MRSA clinical isolates [1]
  MIC Range Against 8 MRSA Strains: >1 mg/L
[2]; [4]
  solubility at 5 min: 7.53 µg/mL
[2]; [5]
  solubility at 5 min: 20 µM

## CN[C@H](CC(C)C)C(=O)N[C@H]1C(=O)N[C@@H](CC(N)=O)C(=O)N[C@H]2C(=O)N[C@H]3C(=O)N[C@H](C(=O)N[C@H](C(=O)O)c4cc(O)cc(O)c4-c4cc3ccc4O)[C@H](O)c3ccc(c(Cl)c3)Oc3cc2cc(c3O[C@@H]2O[C@H](CO)[C@@H](O)[C@H](O)[C@H]2O[C@H]2C[C@](C)(N)[C@H](O)[C@H](C)O2)Oc2ccc(cc2Cl)[C@H]1O [Vancomycin, vancomycin]
MRSA clinical isolates [1]
  MIC: 2 µg/mL (≈ 1.38 µM)
MRSA clinical isolates [3]; MRSA strain 1
  Drug sensibility profile: S
MRSA clinical isolates [3]; MRSA strain 2
  Drug sensibility profile: S
MRSA clinical isolates [3]; MRSA strain 3
  Drug sensibility profile: S
MRSA clinical isolates [3]; MRSA strain 4
  Drug sensibility profile: S
MRSA clinical isolates [3]; MRSA strain 5
  Drug sensibility profile: S
MRSA clinical isolates [3]; MRSA strain 6
  Drug sensibility profile: S
MRSA clinical isolates [3]; MRSA strain 7
  Drug sensibility profile: S
MRSA clinical isolates [3]; MRSA strain 8
  Drug sensibility profile: S
MRSA clinical isolates [3]; MRSA strain 9
  Drug sensibility profile: S
MRSA clinical isolates [3]; MRSA strain 10
  Drug sensibility profile: S
MRSA clinical isolates [3]; MRSA strain 12
  Drug sensibility profile: S
MRSA clinical isolates [3]; MRSA strain 13
  Drug sensibility profile: S
MRSA clinical isolates [3]; MRSA strain 14
  Drug sensibility profile: S
MRSA clinical isolates [3]; MRSA strain 15
  Drug sensibility profile: S
MRSA clinical isolates [3]; MRSA strain 16
  Drug sensibility profile: S
MRSA clinical isolates [3]; MRSA strain 17
  Drug sensibility profile: S
MRSA clinical isolates [3]; MRSA strain 18
  Drug sensibility profile: S
MRSA clinical isolates [3]; MRSA strain 21
  Drug sensibility profile: S
MRSA clinical isolates [3]; MRSA strain 23
  Drug sensibility profile: S
MRSA clinical isolates [3]; MRSA strain 24
  Drug sensibility profile: S
MRSA clinical isolates [3]; MRSA strain 25
  Drug sensibility profile: S
MRSA clinical isolates [3]; MRSA strain 26
  Drug sensibility profile: S
MRSA clinical isolates [3]; MRSA strain 27
  Drug sensibility profile: S
MRSA clinical isolates [3]; MRSA strain 28
  Drug sensibility profile: S
MRSA clinical isolates [3]; MRSA strain 29
  Drug sensibility profile: S
MRSA clinical isolates [3]; MRSA strain 30
  Drug sensibility profile: S
MRSA clinical isolates [3]; MRSA strain 31
  Drug sensibility profile: S
MRSA clinical isolates [3]; MRSA strain 34
  Drug sensibility profile: S
MRSA clinical isolates [3]; MRSA strain 35
  Drug sensibility profile: S
MRSA clinical isolates [3]; MRSA strain 36
  Drug sensibility profile: S
MRSA clinical isolates [3]; MRSA strain 40
  Drug sensibility profile: S
MRSA clinical isolates [3]; MRSA strain 41
  Drug sensibility profile: S
MRSA clinical isolates [3]; MRSA strain 42
  Drug sensibility profile: S
MRSA clinical isolates [3]; MRSA strain 43
  Drug sensibility profile: S
MRSA clinical isolates [3]; MRSA strain 44
  Drug sensibility profile: S
MRSA clinical isolates [3]; MRSA strain 45
  Drug sensibility profile: S
MRSA clinical isolates [3]; MRSA strain 46
  Drug sensibility profile: S
MRSA clinical isolates [3]; MRSA strain 48
  Drug sensibility profile: S
MRSA clinical isolates [3]; MRSA strain 49
  Drug sensibility profile: S
MRSA clinical isolates [3]; MRSA strain 50
  Drug sensibility profile: S
MRSA clinical isolates [3]; MRSA strain 51
  Drug sensibility profile: S

## CCOC(=O)c1[nH]c2cc(F)ccc2c1/N=N/N(CC)CC [BX-SI036, Ethyl (E)-3-(3,3-diethyltriaz-1-en-1-yl)-6-fluoro-1H-indole-2-carboxylate]
MRSA clinical isolates [1]
  MIC Range Against 8 MRSA Strains: >1 mg/L
[2]; [4]
  solubility at 5 min: 10 µg/mL
[2]; [5]
  solubility at 5 min: 30 µM

## CC(=O)NC[C@H]1CN(c2ccc(N3CCOCC3)c(F)c2)C(=O)O1 [Linezolid, linezolid]
MRSA clinical isolates [1]; Figure 6, MRSA strain 2
  MIC: 2 µg/mL (≈ 5.93 µM)
MRSA clinical isolates [1]; Figure 6, MRSA strain 7
  MIC: 2 µg/mL (≈ 5.93 µM)
MRSA clinical isolates [1]; Figure 6, MRSA strain 8
  MIC: 2 µg/mL (≈ 5.93 µM)
MRSA clinical isolates [1]; Figure 6, MRSA strain 9
  MIC: 2 µg/mL (≈ 5.93 µM)
MRSA clinical isolates [1]; Figure 6, MRSA strain 13
  MIC: 2 µg/mL (≈ 5.93 µM)
MRSA clinical isolates [1]; Figure 6, MRSA strain 21
  MIC: 2 µg/mL (≈ 5.93 µM)
MRSA clinical isolates [1]; Figure 6, MRSA strain 48
  MIC: 2 µg/mL (≈ 5.93 µM)
MRSA clinical isolates [1]; Figure 6, MRSA strain 50
  MIC: 2 µg/mL (≈ 5.93 µM)
MRSA clinical isolates [3]; MRSA strain 1
  Drug sensibility profile: S
MRSA clinical isolates [3]; MRSA strain 2
  Drug sensibility profile: S
MRSA clinical isolates [3]; MRSA strain 3
  Drug sensibility profile: S
MRSA clinical isolates [3]; MRSA strain 4
  Drug sensibility profile: S
MRSA clinical isolates [3]; MRSA strain 5
  Drug sensibility profile: S
MRSA clinical isolates [3]; MRSA strain 6
  Drug sensibility profile: S
MRSA clinical isolates [3]; MRSA strain 7
  Drug sensibility profile: S
MRSA clinical isolates [3]; MRSA strain 8
  Drug sensibility profile: S
MRSA clinical isolates [3]; MRSA strain 9
  Drug sensibility profile: S
MRSA clinical isolates [3]; MRSA strain 10
  Drug sensibility profile: S
MRSA clinical isolates [3]; MRSA strain 12
  Drug sensibility profile: S
MRSA clinical isolates [3]; MRSA strain 13
  Drug sensibility profile: S
MRSA clinical isolates [3]; MRSA strain 14
  Drug sensibility profile: S
MRSA clinical isolates [3]; MRSA strain 15
  Drug sensibility profile: S
MRSA clinical isolates [3]; MRSA strain 16
  Drug sensibility profile: S
MRSA clinical isolates [3]; MRSA strain 17
  Drug sensibility profile: S
MRSA clinical isolates [3]; MRSA strain 18
  Drug sensibility profile: S
MRSA clinical isolates [3]; MRSA strain 21
  Drug sensibility profile: S
MRSA clinical isolates [3]; MRSA strain 23
  Drug sensibility profile: S
MRSA clinical isolates [3]; MRSA strain 24
  Drug sensibility profile: S
MRSA clinical isolates [3]; MRSA strain 25
  Drug sensibility profile: S
MRSA clinical isolates [3]; MRSA strain 26
  Drug sensibility profile: S
MRSA clinical isolates [3]; MRSA strain 27
  Drug sensibility profile: S
MRSA clinical isolates [3]; MRSA strain 28
  Drug sensibility profile: S
MRSA clinical isolates [3]; MRSA strain 29
  Drug sensibility profile: S
MRSA clinical isolates [3]; MRSA strain 30
  Drug sensibility profile: S
MRSA clinical isolates [3]; MRSA strain 31
  Drug sensibility profile: S
MRSA clinical isolates [3]; MRSA strain 34
  Drug sensibility profile: S
MRSA clinical isolates [3]; MRSA strain 35
  Drug sensibility profile: S
MRSA clinical isolates [3]; MRSA strain 36
  Drug sensibility profile: S
MRSA clinical isolates [3]; MRSA strain 40
  Drug sensibility profile: S
MRSA clinical isolates [3]; MRSA strain 41
  Drug sensibility profile: S
MRSA clinical isolates [3]; MRSA strain 42
  Drug sensibility profile: S
MRSA clinical isolates [3]; MRSA strain 43
  Drug sensibility profile: S
MRSA clinical isolates [3]; MRSA strain 44
  Drug sensibility profile: S
MRSA clinical isolates [3]; MRSA strain 45
  Drug sensibility profile: S
MRSA clinical isolates [3]; MRSA strain 46
  Drug sensibility profile: S
MRSA clinical isolates [3]; MRSA strain 48
  Drug sensibility profile: S
MRSA clinical isolates [3]; MRSA strain 49
  Drug sensibility profile: S
MRSA clinical isolates [3]; MRSA strain 50
  Drug sensibility profile: S
MRSA clinical isolates [3]; MRSA strain 51
  Drug sensibility profile: S

## CCOC(=O)c1c(/N=N/N(C)CCN(C)C)c2cccnc2n1C [BX-SI027, Ethyl (E)-3-(3-(2-(dimethylamino)ethyl)-3-methyltriaz-1-en-1-yl)-1-methyl-1H-pyrrolo[2,3-b]pyridine-2-carboxylate]
MRSA clinical isolates [1]
  MIC Range Against 8 MRSA Strains: >1 mg/L
[2]; [4]
  solubility at 5 min: 927 µg/mL
[2]; [5]
  solubility at 5 min: 2780 µM

## CCOC(=O)c1[nH]c2cc(F)ccc2c1/N=N/N1CCN(Cc2ccccc2)CC1 [BX-SI038, Ethyl (E)-3-((4-benzylpiperazin-1-yl)diazenyl)-6-fluoro-1H-indole-2-carboxylate]
MRSA clinical isolates [1]
  MIC Range Against 8 MRSA Strains: >1 mg/L
[2]; [4]
  solubility at 5 min: 0.383 µg/mL
[2]; [5]
  solubility at 5 min: 1 µM

## CCOC(=O)c1c(/N=N/N2CCN(Cc3ccccc3)CC2)c2cccnc2n1C [BX-SI021, Ethyl (E)-3-((4-benzylpiperazin-1-yl)diazenyl)-1-methyl-1H-pyrrolo[2,3-b]pyridine-2-carboxylate]
MRSA clinical isolates [1]
  MIC Range Against 8 MRSA Strains: >1 mg/L
[2]; [4]
  solubility at 5 min: 12.5 µg/mL
[2]; [5]
  solubility at 5 min: 10 µM

From paper PMC11899342, “Novel Triazeneindole Antibiotics: Synthesis and Hit-to-Lead Optimization” (International Journal of Molecular Sciences, 2025)
